Tests used:
[1] = target: bovine serum albumin (BSA) (Bos taurus, UniProt P02769); experiment: ReACT labeling of BSA, CuAAC with Cy3-azide, in-gel fluorescence imaging
Experimental: FIG. 1A Left panel: Acid-base conjugation strategies for cysteine-based protein functionalization; Right panel: Redox-Activated Chemical Tagging (ReACT) strategies for methionine-based protein functionalization. Oxaziridine (Ox) compounds serve as oxidant-sulfimide conjugation product. (B) Model redox conjugation reaction with 25 μM of N-acetyl-L-methionine methyl ester (Si) and 27.5 μM of various oxaziridine compounds as substrates in co-solvent. (C) Number of unique redox conjugation carrying peptide on representative amino acid, namely Met, Lys and Cys by labeling HeLa cell lysate with Ox4 at the final concentration of 1 mM for 10 min. (D) Yield of conjugation reaction was performed with 15 μM of BSA carrying 4 methionine per protein and 100 μM Ox4 at indicated time point as measured by in-gel fluorescence imaging.
ReACT as a method for site-selective methionine conjugation of proteins was evaluated. […] The resulting redox conjugation yield to BSA was analyzed by in-gel fluorescence imaging. […] The reactivity of various alkyne- and azide-containing oxaziridine probes with CaM model protein was assessed (FIG. 2B). […]

[2] = Stability of redox conjugation product sulfimide (NMR); assay type: physicochemical; conditions: salt form under strong acidic condition
Experimental: The reactivity of oxaziridine probes with other biologically relevant amino acid competitors was evaluated. […] HeLa cell lysates were treated with Ox4, trypsin digested, and then analyzed by LC-MS/MS for probe modification on all nucleophilic amino acids using the X!Tandem program^43. […] Finally, the chemical stability of the sulfimide methionine conjugation product was tested, finding that this linkage is resistant to acidic and basic conditions, elevated temperature, as well as treatment with a strong protein disulfide reducing agent such as tris(2-carboxyethyl)phophine (TCEP).
The stability of sulfimides were tested by treatment of sulfimides S2 with 5 mM TCEP or treatment of sulfimides S3 with 1 N HC1, 1 N NaOH or 80° C. in co-solvent (d-MeOD/D2O=1:1). The reactions were monitored by NMR after 1 h and 18 h and the reaction conversions were calculated based on NMR data.

Sequence of bovine serum albumin (BSA) (P02769 25-607): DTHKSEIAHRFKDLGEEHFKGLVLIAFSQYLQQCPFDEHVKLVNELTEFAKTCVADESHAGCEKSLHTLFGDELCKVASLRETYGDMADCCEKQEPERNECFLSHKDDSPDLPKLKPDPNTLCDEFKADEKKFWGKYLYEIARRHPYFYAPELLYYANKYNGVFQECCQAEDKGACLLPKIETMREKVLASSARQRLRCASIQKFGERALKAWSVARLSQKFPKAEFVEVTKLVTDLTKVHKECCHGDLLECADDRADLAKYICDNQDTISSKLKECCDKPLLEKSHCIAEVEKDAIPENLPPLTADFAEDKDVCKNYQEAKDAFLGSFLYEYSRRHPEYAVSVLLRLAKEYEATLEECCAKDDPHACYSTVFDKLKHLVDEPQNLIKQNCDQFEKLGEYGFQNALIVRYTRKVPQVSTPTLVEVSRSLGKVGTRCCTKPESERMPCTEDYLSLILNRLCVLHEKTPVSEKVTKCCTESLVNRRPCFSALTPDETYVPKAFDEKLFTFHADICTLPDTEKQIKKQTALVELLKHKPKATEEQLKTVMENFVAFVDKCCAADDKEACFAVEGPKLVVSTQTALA

| redox conjugation yield to BSA ([1]; within 1-2 min, 15 μM BSA, 100 μM Ox4) [%] | labeling of BSA ([1]; within the first 5 s following addition of Ox4) [%] | stability in aqueous solution [2] | Structure (SMILES) |
| --- | --- | --- | --- |
| > 95 | 50 |  | C#CCNC(=O)N1OC1c1ccccc1 (stereo not drawn) [Ox4, 3-Phenyl-N-(prop-2-yn-1-yl)-1,2-oxaziridine-2-carboxamide] |
|  |  | stable in aqueous solution | CCNC(=O)N[S+](C)c1ccccc1.[Cl-] (stereo not drawn) [Ox S4] |

From US11353463B2, “Redox-based reagents for methionine bioconjugation” (The Regents of the University of California, priority 2016, dated 2022)
